Data reported in ChEMBL document CHEMBL3886572, “Cyclic amides” (2016).

Target: Procathepsin L (Homo sapiens, UniProt P07711)
Test: Assay buffer: 100 mM potassium phosphate pH 6.5, EDTA-Na 5 mM, Triton X-100 0.001%, DDT 5 mM. […] AMC=7-Amino-4-Methyl-Coumarin. […] Excitation 360 nm, Emission 465 nm. Enzyme is added to the substance dilutions in 96-well microtitre plates and the reaction is started with substrate.

Chain of Procathepsin L (P07711 whole entry): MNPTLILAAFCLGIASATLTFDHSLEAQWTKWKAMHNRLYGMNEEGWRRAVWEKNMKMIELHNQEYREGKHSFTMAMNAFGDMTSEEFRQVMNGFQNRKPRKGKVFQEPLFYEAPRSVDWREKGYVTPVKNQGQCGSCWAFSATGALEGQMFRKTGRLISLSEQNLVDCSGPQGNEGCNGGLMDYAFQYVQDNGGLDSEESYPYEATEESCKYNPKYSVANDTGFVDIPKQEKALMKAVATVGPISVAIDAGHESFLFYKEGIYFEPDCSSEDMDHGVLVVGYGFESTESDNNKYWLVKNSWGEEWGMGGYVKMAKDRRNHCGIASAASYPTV

## N#Cc1ccc2c(c1)C(=O)N[C@H](C(=O)NC1(C#N)CC1)Cc1ccc(c(Cl)c1)OC/C=C/CO2
  IC50: 6.9 nM
